In PubChem BioAssay AID2742 (NMMLSC, 2010) one finds GFP fluorescence (kMESF), higher = increase data, which are given here for 75 compounds.

Structures are written as SMILES. Several values for one entry are separate records, joined by “and”; a condition that tells them apart may be missing. Equal values may be shown once. Activity calls are given as the source filed them.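 How the source made its calls: active means fitted half-maximal concentration for changing background-corrected GFP signal at or below a set limit; inactive means the rest.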

This assay in a line: modulators of MEP2-GFP levels in yeast, dose response, S. cerevisiae, flow cytometry GFP, MLPCN hits (AID 2742).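 Further: GFP tag reports level of MEP2 protein as a downstream target of TOR signalling.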 As to conditions: S. cerevisiae MEP2-GFP strain, flow cytometry fluorescence, 3 h; at 33 µM (top of the series). A general note: Flow cytometry measures light scatter and fluorescence of single cells or particles in a stream.

For `COc1ccc2c(/C=C/c3cc[n+](C)cc3)c[nH]c2c1`, the GFP fluorescence (kMESF), higher = increase was 4.86 kMESF (inactive).

In the case of `Cc1ccccc1OCC(=O)NNC(=S)NC(=O)c1ccco1`, the GFP fluorescence (kMESF), higher = increase was 5.41 kMESF (inactive). Under `O=C(c1ccc(Cl)c([N+](=O)[O-])c1)N1CCN(c2ccccc2)CC1` stands 2.46 kMESF (inactive).

In the case of `CCC(=O)Oc1oc(-c2ccccc2)nc1C=Nc1ccccc1OC`, the GFP fluorescence (kMESF), higher = increase is 2.69 kMESF (inactive). Under `CCOc1ccc(N/N=C(/C#N)C(N)=O)cc1` stands 2.43 kMESF (inactive).

`O=[N+]([O-])c1cc(CN2CCN(c3cccc(C(F)(F)F)c3)CC2)c2cccnc2c1O`: the GFP fluorescence (kMESF), higher = increase was 4.44 kMESF (inactive). Turning to `Cc1cccc(N=Nc2ccc(O)c3ncccc23)c1`, the GFP fluorescence (kMESF), higher = increase is 3.18 kMESF (inactive). Under `COc1cc(NC(=O)c2cccc(C)c2)ccc1NC(=O)c1cc2ccccc2o1` stands 2.2 kMESF (inactive); under `COc1ccccc1-c1nc2s/c(=C\c3cccs3)c(=O)n2n1`, 5.28 kMESF (inactive); under `O=C(Nc1ccccc1)c1nnsc1S(=O)(=O)c1ccc(Cl)cc1`, 6.03 kMESF (inactive).

For `Cc1[nH]n(-c2ccccc2)c(=O)c1C(c1ccccc1[N+](=O)[O-])C(C#N)C#N` (stereo not given), the GFP fluorescence (kMESF), higher = increase is 4.8 kMESF (inactive).

Take `CCCOc1ccc(C(=O)NNC(=S)NC(=O)c2ccco2)cc1`: the GFP fluorescence (kMESF), higher = increase is 4.58 kMESF (inactive). Under `CCc1ccc(OCC(=O)NNC(=S)NC(=O)C2CC2)c(Br)c1` stands 5.6 kMESF (inactive); under `COc1ccc(C(=O)NC(=S)NNC(=O)c2cnccn2)cc1OC`, 2.46 kMESF (inactive). Under `COc1ccc(/C=C2/C(=O)ON=C2c2ccccc2)cc1OC` stands 4.51 kMESF (inactive); under `CCOC(=O)CSC1=NC(=O)/C(=C/c2ccc(Br)cc2)S1`, 4.7 kMESF (inactive).

As to `O=[N+]([O-])c1cc(CN2CCN(c3ccccc3)CC2)c(O)c2ncccc12`, the GFP fluorescence (kMESF), higher = increase is 4.24 kMESF (inactive). Under `COc1ccc(C2(C)ON(c3ccccc3C(F)(F)F)C2=O)cc1` (stereo not given) stands 2.87 kMESF (inactive). Then `COc1cccc(/C=C2\SC(=S)N(CCCC(=O)Nc3ccc(C(=O)O)cc3)C2=O)c1`, with 1.55 kMESF (inactive); and `O=C1ON=C(c2ccccc2)/C1=C\c1ccco1`, with 4.59 kMESF (inactive). Consider `Cc1cccnc1Nc1nc(-c2ccccn2)cs1`, for which the GFP fluorescence (kMESF), higher = increase was 2.08 kMESF (inactive). Regarding `CCCCC1OC23CCCCC2C(C#N)(C(=N)O3)C1(C#N)C#N` (stereo not given), the GFP fluorescence (kMESF), higher = increase is 3.37 kMESF (inactive). With `C#CCOCCOCCOCCNc1nc(N2CCN(C(=O)CCCCCCCCCCNC(=O)[C@@H](CCC(=O)O)n3cc(CCCCCN)nn3)CC2)nc(N2CCN(C(=O)CCCCCCCCCCNC(=O)[C@H](CCCCN)n3cc(C[C@@H](C)CC)nn3)CC2)n1`, the GFP fluorescence (kMESF), higher = increase was 3.84 kMESF (inactive). Under `O=C(c1ccccc1)c1ccccc1N1C(=O)C=CC1=O` stands 4.22 kMESF (inactive); under `Cc1ccc(/C=C2\C(=O)NC(=S)N(c3ccc(F)cc3)C2=O)s1`, 4.08 kMESF (inactive).

Take `CC(C)(C)C(=O)C(Cl)C(=O)Nc1ccccc1` (stereo not given): the GFP fluorescence (kMESF), higher = increase was 4.12 kMESF (inactive). Then `O=S(=O)(/N=C(/Sc1ccccc1)c1ccccc1)c1ccccc1`, with 4.43 kMESF (inactive). Under `Cc1cc(C)c(S(=O)(=O)N2CCC(C(=O)NCc3ccc(Cl)cc3Cl)CC2)c(C)c1` stands 4.68 kMESF (inactive). `COc1cc(NC(=O)c2ccc(C)cc2)ccc1NC(=O)c1cc2ccccc2o1`: the GFP fluorescence (kMESF), higher = increase was 2.3 kMESF (inactive). Then `CN(C)/C=C/C(=O)c1ccc(-c2ccc(Cl)cc2Cl)o1`, with 2 kMESF (inactive). Under `O=C1c2cccc3c([N+](=O)[O-])ccc(c23)C(=O)N1c1ccccn1` stands 12.2 kMESF (inactive). Under `CCOc1ccc(C(C)=O)cc1N1C(=O)C2C3C=CC(O3)C2C1=O` (stereo not given) stands 3.31 kMESF (inactive); under `C[C@@]12C(=O)OC(=O)[C@]1(C)C1CCC2O1`, 3.51 kMESF (inactive); under `O=[N+]([O-])c1cc(F)c2cccnc2c1O`, 5.96 kMESF (inactive).

For `O=C(OCn1ncc(Br)c(Br)c1=O)c1ccccc1Cl`, the GFP fluorescence (kMESF), higher = increase is 4.8 kMESF (inactive).

`COc1cc(N2C(=O)C=CC2=O)c(OC)cc1Cl`: the GFP fluorescence (kMESF), higher = increase is 3.78 kMESF (inactive). Consider `Cc1cc(C)c(S(=O)(=O)ON2C(=O)c3ccccc3C2=O)cc1C`, for which the GFP fluorescence (kMESF), higher = increase was 3.17 kMESF (inactive). Regarding `N#C/C(=C\c1cc(Br)ccc1F)C(=O)NC1CC1`, the GFP fluorescence (kMESF), higher = increase is 6.77 kMESF (inactive).

Consider `CCOc1ccc(N2C(=O)/C(=C\c3cccs3)C(=O)NC2=S)cc1`, for which the GFP fluorescence (kMESF), higher = increase is 3.57 kMESF (inactive). Under `COc1ccccc1OCCCc1c(C)n[nH]c1C` stands 3.47 kMESF (inactive); under `COc1cc(/C=C/[N+](=O)[O-])ccc1O`, 3.88 kMESF (inactive). Then `COc1cccc(C(=O)Nc2nnc(-c3ccc(Cl)cc3)o2)c1`, with 4.71 kMESF (inactive). With `COc1ccccc1NC1=C(Cl)C(=O)N(c2ccccc2)C1=O`, the GFP fluorescence (kMESF), higher = increase was 2.07 kMESF (inactive). Turning to `O=c1oc2ccccc2c(O)c1[C@H]1c2ccc(O)cc2Oc2c1c(=O)oc1ccccc21`, the GFP fluorescence (kMESF), higher = increase was 4.67 kMESF (inactive). Under `Cc1ccc(NC(=O)c2ccc(Cl)c(N3C(=O)C=CC3=O)c2)cc1` stands 5.91 kMESF (inactive); under `O=C1C2C3C=CC(CO)(O3)C2C(=O)N1c1ccc(-c2ccccc2)cc1` (stereo not given), 4.74 kMESF (inactive). Then `CCOc1ccccc1/C=c1\sc2ncnn2c1=O`, with 4.47 kMESF (inactive). Under `O=[N+]([O-])c1cc(S(=O)(=O)C(F)(F)F)ccc1Sc1nc2ccccc2s1` stands 4.67 kMESF (inactive). For the compound `O=C1N(c2ccccc2C(F)(F)F)OC1(Cc1ccccc1)c1ccccc1` (stereo not given), the GFP fluorescence (kMESF), higher = increase was 2.86 kMESF (inactive). Under `O=C1C=CC(=O)N1c1ccc(Sc2ccc([N+](=O)[O-])cc2)cc1` stands 2.59 kMESF (inactive).

`CC1=NOC(=O)/C1=C\c1ccc(-c2cc(Cl)ccc2Cl)o1`: the GFP fluorescence (kMESF), higher = increase was 4.04 kMESF (inactive). As for `CCCCc1ccc(NC(=O)CC(C)=O)cc1`, the GFP fluorescence (kMESF), higher = increase was 2.02 kMESF (inactive).

For the compound `O=S(=O)(CCN(CCS(=O)(=O)C(F)(F)F)CC1CCCO1)C(F)(F)F` (stereo not given), the GFP fluorescence (kMESF), higher = increase is 4.69 kMESF (inactive). For `CCOC(=O)C(C(=O)OCC)C(C(=O)OCC)N1CCOCC1` (stereo not given), the GFP fluorescence (kMESF), higher = increase was 4.83 kMESF (inactive).

In the case of `Cc1ccc(NC(=O)c2nc(S(=O)(=O)Cc3ccccc3)ncc2Cl)cc1`, the GFP fluorescence (kMESF), higher = increase is 3.33 kMESF (inactive). Under `CC(=O)n1cc(C(C[N+](=O)[O-])SCCN)c2ccccc21` (stereo not given) stands 3.64 kMESF (inactive); under `COc1cc(N=c2ssnc2Cl)c(OC)cc1Cl`, 6.31 kMESF (inactive) and 6.98 kMESF (inactive). Under `COc1ccc([N+](=O)[O-])c(S(=O)(=O)c2ccccc2)n1` stands 3.41 kMESF (inactive); under `Cc1ccc(-c2nc(N)c3c(-c4ccc(C)cc4)nn(C(C)(C)C)c3n2)cc1`, 1.65 kMESF (inactive); under `COc1ccc(NC2=C(Cl)C(=O)N(CCc3ccccc3)C2=O)cc1`, 2.7 kMESF (inactive). Under `O=S(=O)(c1ccccc1)c1ccc(C(F)(F)F)cn1` stands 2.27 kMESF (inactive); under `CC[C@@]1(c2ccccc2OC)ON(c2ccccc2C(F)(F)F)C1=O`, 3.17 kMESF (inactive); under `CCc1sc(C(=O)Nc2nc(-c3ccccn3)cs2)cc1C`, 5.26 kMESF (inactive). For `C#CCOCCOCCOCCNc1nc(N2CCN(C(=O)CCCCCCCCCCNC(=O)[C@H](CCCCN)n3cc(C)nn3)CC2)nc(N2CCN(C(=O)CCCCCCCCCCNC(=O)[C@H](CCCN=C(N)N)n3cc(C[C@@H](C)CC)nn3)CC2)n1`, the GFP fluorescence (kMESF), higher = increase was 3.34 kMESF (inactive). Under `Cc1cccc(Nc2nc(-c3ccccn3)cs2)n1` stands 5.01 kMESF (inactive); under `CCCCOc1ccc(C(=O)NNC(=S)NC(=O)CC)cc1`, 6.17 kMESF (inactive); under `O=C(/C=C/c1ccccc1[N+](=O)[O-])c1ccccc1Br`, 62.3 kMESF (inactive). Take `CN(O)/C=c1/ccc2c(n1)C(=O)C=CC=2`: the GFP fluorescence (kMESF), higher = increase is 3.88 kMESF (inactive).

`Oc1c(C(Nc2cccc(C(F)(F)F)c2)c2ccncc2)ccc2cccnc12` (stereo not given): the GFP fluorescence (kMESF), higher = increase was 4.71 kMESF (inactive). With `Cc1cccc(NC(c2ccc(C)s2)c2ccc3ccc(C)nc3c2O)n1` (stereo not given), the GFP fluorescence (kMESF), higher = increase was 8.62 kMESF (inactive). For the compound `CCCCCCCCCCCCCCCC[n+]1cccc2ccccc21`, the GFP fluorescence (kMESF), higher = increase is 1.62 kMESF (inactive). Under `CCN1/C(=C/C=C/c2sc3ccccc3[n+]2CC)Sc2ccccc21` stands 105 kMESF (inactive); under `O=C(NC(=S)NNC(=O)c1ccc(Cl)cc1Cl)c1cccnc1`, 1.66 kMESF (inactive). As for `O=C(/C=C/c1ccccc1)NC(=S)NNC(=O)Cc1cccs1`, the GFP fluorescence (kMESF), higher = increase is 2.02 kMESF (inactive).

As to `Oc1c(Br)cc(Br)cc1C=Nc1ccc2[nH]ncc2c1`, the GFP fluorescence (kMESF), higher = increase was 5.46 kMESF (inactive).
